Data published in patent publication EP1561465A2, “Methods of use of fluoroquinolone compounds against bacteria” (LG Life Sciences, Ltd., priority 1999, dated 2001).
≈ marks a conversion by molar mass, not a printed value. Read-outs that look alike come from different tables or passages of the source.

Assays:
Format in all cases: cell-based
[1] = tested on: Salmonella spp.; test: MIC by agar dilution (NCCLS M7-A4), 288 enteropathogenic isolates, gemifloxacin and 15 other antimicrobials
[2] = tested on: Streptococcus pneumoniae; test: MIC by agar dilution (NCCLS), 411 isolates Buenos Aires 1998-99; conditions: for MIC / MIC90: Streptococcus pneumoniae; for MIC: Ciprofloxacin-resistant S. pneumoniae, read-out: MIC; for MIC90: read-out: MIC90
[3] = tested on: Providencia rettgeri; test: MIC by NCCLS broth microdilution, 1100 Japanese clinical isolates 1997-1998
[4] = tested on: Moraxella catarrhalis; test: MIC by agar dilution (NCCLS), 411 isolates Buenos Aires 1998-99; conditions: Moraxella catarrhalis (n = 59)
[5] = tested on: Morganella morganii; test: MIC by NCCLS broth microdilution, 1100 Japanese clinical isolates 1997-1998
[6] = tested on: Hafnia alvei; test: MIC by agar dilution (NCCLS M7-A4), 288 enteropathogenic isolates, gemifloxacin and 15 other antimicrobials; conditions: Hafnia alvei N= 32
[7] = tested on: Enterococcus faecalis; test: MIC by NCCLS broth microdilution, 1100 Japanese clinical isolates 1997-1998; conditions: for MIC50 / MIC90: Enterococcus faecalis; for MIC90: read-out: MIC90
[8] = tested on: Haemophilus influenzae; test: MIC by two-fold serial agar dilution, Sensitivity Disk agar-N (Kitasato isolates); conditions: Haemophilus influenzae (24)
[9] = tested on: Streptococcus pneumoniae and Haemophilus influenzae; test: MIC by broth microdilution (NCCLS), all isolates pooled
[10] = tested on: Klebsiella pneumoniae; test: MIC by NCCLS broth microdilution, 1100 Japanese clinical isolates 1997-1998
[11] = tested on: Proteus mirabilis; test: as above
[12] = tested on: Enterococcus gallinarum; test: as above; conditions: Enterococcus gallinarum, GALLINARUM, Enterococcus gallinarum (vanC1), read-out: MIC
[13] = tested on: Yersinia enterocolitica; test: MIC by agar dilution (NCCLS M7-A4), 288 enteropathogenic isolates, gemifloxacin and 15 other antimicrobials; conditions: Yersinia enterocolitica N= 22
[14] = tested on: Streptococcus pneumoniae; test: MIC by two-fold serial agar dilution, Sensitivity Disk agar-N (Kitasato isolates); conditions: Streptococcus pneumoniae; for MIC90: read-out: MIC90; for MIC: read-out: MIC Range; for MIC50: read-out: MIC50
[15] = tested on: E. coli; test: microbe, parasite or virus in culture; conditions: Escherichia coli
[16] = tested on: Shigella spp.; test: MIC by NCCLS broth microdilution, 1100 Japanese clinical isolates 1997-1998; conditions: Shigella spp. (n=34)
[17] = tested on: Aeromonas spp.; test: MIC by agar dilution (NCCLS M7-A4), 288 enteropathogenic isolates, gemifloxacin and 15 other antimicrobials; conditions: Aeromonas spp. N= 16
[18] = tested on: Proteus vulgaris; test: MIC by NCCLS broth microdilution, 1100 Japanese clinical isolates 1997-1998
[19] = tested on: Enterobacter aerogenes; test: as above; conditions: Enterobacter aerogenes (n=35)
[20] = tested on: Citrobacter freundii; test: as above
[21] = tested on: Klebsiella oxytoca; test: as above; conditions: Klebsiella oxytoca (n=40)
[22] = Streptococcus pneumoniae (n = 90)
[23] = 24 h, read-out: MIC (mg/L) Range
[24] = Enterococcus faecalis ciprofloxacin resistant (n=15)
[25] = Enterococcus faecalis ciprofloxacin susceptible (n=24)

C[C@H]1COc2c(N3CCN(C)CC3)c(F)cc3c(=O)c(C(=O)O)cn1c23 [Levofloxacin, levofloxacin]
MIC ([1]; S. hadar(2), isolates with MICs for ciprofloxacin ≥[…], read-out: MIC): 1 mg/L (≈ 2.77 µM) | MIC ([1]; S. newport(1), isolate with MIC for ciprofloxacin ≥[…], read-out: MIC): 1 mg/L (≈ 2.77 µM) | MIC ([1]; S. virchow(2), isolates with MICs for ciprofloxacin ≥[…], read-out: MIC): 0.25 mg/L (≈ 0.692 µM) | MIC (mg/L) Range ([1]; Salmonella spp. N= 106): 0.06 to 1 mg/L | MIC ([1]; Salmonella, S. tshiongwe(1), isolate with MIC for ciprofloxacin ≥[…], read-out: MIC): 1 mg/L (≈ 2.77 µM) | MIC ([1]; Salmonella, read-out: MIC (mg/L) 50%, Salmonella spp. N= 106): 0.06 mg/L (≈ 0.166 µM) | MIC ([1]; Salmonella, read-out: MIC (mg/L) 90%, Salmonella spp. N= 106): 0.25 mg/L (≈ 0.692 µM) | MIC Range [2, 22]: 0.25 to 4 µg/mL | MIC ([2]; Strain 1): 1 µg/mL (≈ 2.77 µM) | MIC ([2]; Strain 2): 1 µg/mL (≈ 2.77 µM) | MIC ([2]; Strain 3): 4 µg/mL (≈ 11.1 µM) | MIC ([2]; Strain 4): 2 µg/mL (≈ 5.53 µM) | MIC90 ([2]; S. pneumoniae, Penicillin intermediate (n = 17)): 1 µg/mL (≈ 2.77 µM) | MIC90 ([2]; S. pneumoniae, Penicillin resistant (n = 4)): 1 µg/mL (≈ 2.77 µM) | MIC90 ([2]; S. pneumoniae, Penicillin susceptible (n = 69)): 1 µg/mL (≈ 2.77 µM) | MIC90 [2, 22]: 1 µg/mL (≈ 2.77 µM) | MIC50 ([3]; Providencia rettgeri): 0.125 µg/mL (≈ 0.346 µM) | MIC90 ([3]; Providencia rettgeri (n=12)): 8 µg/mL (≈ 22.1 µM) | MIC Range ([3]; Providencia rettgeri (n=12)): 0.125 to 8 µg/mL | MIC Range [4]: ≤0.004 to 0.03 µg/mL | MIC90 ([4]; read-out: MIC90): 0.03 µg/mL (≈ 0.083 µM) | MIC90 ([5]; Morganella morganii): 0.125 µg/mL (≈ 0.346 µM) | MIC Range ([5]; Morganella morganii (n=40)): 0.016 to 8 µg/mL | MIC50 ([5]; Morganella morganii (n=40), read-out: MIC50): 0.032 µg/mL (≈ 0.0886 µM) | MIC [6, 23]: 0.015 to 0.03 mg/L (≈ 0.0415 to 0.083 µM) | MIC ([6]; read-out: MIC (mg/L) 50%): 0.03 mg/L (≈ 0.083 µM) | MIC ([6]; read-out: MIC (mg/L) 90%): 0.03 mg/L (≈ 0.083 µM) | MIC Range [7, 24]: 2 to 32 µg/mL | MIC Range [7, 25]: 1 to 2 µg/mL | MIC50 [7, 24]: 16 µg/mL (≈ 44.3 µM) | MIC90 [7, 24]: 32 µg/mL (≈ 88.6 µM) | MIC50 [7, 25]: 1 µg/mL (≈ 2.77 µM) | MIC90 [7, 25]: 2 µg/mL (≈ 5.53 µM) | MIC50 [8]: 0.031 µg/mL (≈ 0.0858 µM) | MIC90 [8]: 0.031 µg/mL (≈ 0.0858 µM) | MIC Range [8]: 0.016 to 0.031 µg/mL | MIC90 ([9]; all (380) isolates tested (235 S. pneumoniae, 145 H. influenzae)): 1 µg/mL (≈ 2.77 µM) | MIC90 ([9]; all isolates tested (602)): 1 µg/mL (≈ 2.77 µM) | MIC90 ([10]; Klebsiella pneumoniae): 0.125 µg/mL (≈ 0.346 µM) | MIC50 ([10]; Klebsiella pneumoniae (n=35)): 0.032 µg/mL (≈ 0.0886 µM) | MIC Range ([10]; Klebsiella pneumoniae (n=35)): 0.016 to 4 µg/mL | MIC90 ([11]; Proteus mirabilis): 0.125 µg/mL (≈ 0.346 µM) | MIC Range ([11]; Proteus mirabilis (n=30)): 0.032 to 2 µg/mL | MIC50 ([11]; Proteus mirabilis (n=30), read-out: MIC50): 0.063 µg/mL (≈ 0.174 µM) | MIC ([12]; strain TMS1): 1 µg/mL (≈ 2.77 µM) | MIC ([12]; strain TMS2): 2 µg/mL (≈ 5.53 µM) | MIC ([12]; strain TMS3): 1 µg/mL (≈ 2.77 µM) | MIC ([12]; strain TMS4): 0.5 µg/mL (≈ 1.38 µM) | MIC [13, 23]: 0.03 to 0.5 mg/L (≈ 0.083 to 1.38 µM) | MIC ([13]; read-out: MIC (mg/L) 50%): 0.06 mg/L (≈ 0.166 µM) | MIC ([13]; read-out: MIC (mg/L) 90%): 0.06 mg/L (≈ 0.166 µM) | MIC90 ([14]; 18 h, Ciprofloxacin-resistant (21), ciprofloxacin MIC ≥8 µg/ml): 16 µg/mL (≈ 44.3 µM) | MIC ([14]; 18 h, Ciprofloxacin-resistant (21)): 2 to 32 µg/mL (≈ 5.53 to 88.6 µM) | MIC ([14]; 18 h, Ciprofloxacin-susceptible (94)): 0.25 to 2 µg/mL (≈ 0.692 to 5.53 µM) | MIC ([14]; 18 h, Erythromycin-resistant (37)): 0.5 to 16 µg/mL (≈ 1.38 to 44.3 µM) | MIC ([14]; 18 h, Minocycline-resistant (37)): 0.25 to 16 µg/mL (≈ 0.692 to 44.3 µM) | MIC ([14]; 18 h, Penicillin-resistant (19)): 0.5 to 8 µg/mL (≈ 1.38 to 22.1 µM) | MIC50 ([14]; Ciprofloxacin-resistant (21)): 16 µg/mL (≈ 44.3 µM) | MIC50 ([14]; Ciprofloxacin-susceptible (94)): 0.5 µg/mL (≈ 1.38 µM) | MIC90 ([14]; Ciprofloxacin-susceptible (94)): 1 µg/mL (≈ 2.77 µM) | MIC50 ([14]; Erythromycin-resistant (37)): 1 µg/mL (≈ 2.77 µM) | MIC90 ([14]; Erythromycin-resistant (37)): 2 µg/mL (≈ 5.53 µM) | MIC50 ([14]; Minocycline-resistant (37)): 1 µg/mL (≈ 2.77 µM) | MIC90 ([14]; Minocycline-resistant (37)): 2 µg/mL (≈ 5.53 µM) | MIC50 ([14]; Penicillin-resistant (19)): 0.5 µg/mL (≈ 1.38 µM) | MIC90 ([14]; Penicillin-resistant (19)): 1 µg/mL (≈ 2.77 µM) | MIC50 ([15]; E. coli (13 strains), quinolone-resistant, read-out: MIC50): 0.125 µg/mL (≈ 0.346 µM) | MIC90 ([15]; E. coli (13 strains), quinolone-resistant, read-out: MIC90): 1 µg/mL (≈ 2.77 µM) | MIC ([15]; E. coli KU1029, mutant type SP (spontaneous mutant in the DNA gyrase)): 0.063 µg/mL (≈ 0.174 µM) | MIC ([15]; E. coli KU1030, mutant type SP): 0.125 µg/mL (≈ 0.346 µM) | MIC ([15]; E. coli KU1031, mutant type SP): 0.063 µg/mL (≈ 0.174 µM) | MIC ([15]; E. coli KU1032, mutant type SP): 0.25 µg/mL (≈ 0.692 µM) | MIC ([15]; E. coli KU1033, mutant type SP): 0.063 µg/mL (≈ 0.174 µM) | MIC ([15]; E. coli KU1034, mutant type GA (DNA gyrase A)): 1 µg/mL (≈ 2.77 µM) | MIC ([15]; E. coli KU1035, mutant type GA (DNA gyrase A)): 1 µg/mL (≈ 2.77 µM) | MIC ([15]; E. coli KU1036, mutant type GB (DNA gyrase B)): 0.125 µg/mL (≈ 0.346 µM) | MIC ([15]; E. coli KU1038, mutant type SP): 0.125 µg/mL (≈ 0.346 µM) | MIC ([15]; E. coli KU1039, mutant type SP): 0.25 µg/mL (≈ 0.692 µM) | MIC ([15]; E. coli KU1040, mutant type SP): 0.031 µg/mL (≈ 0.0858 µM) | MIC ([15]; E. coli KU1041, mutant type SP): 0.5 µg/mL (≈ 1.38 µM) | MIC ([15]; E. coli KU1042, mutant type SP): 0.063 µg/mL (≈ 0.174 µM) | MIC50 [16]: 0.016 µg/mL (≈ 0.0443 µM) | MIC90 [16]: 0.063 µg/mL (≈ 0.174 µM) | MIC Range [16]: 0.016 to 0.063 µg/mL | MIC (mg/L) Range [17]: ≤0.015 to 0.06 mg/L | MIC ([17]; read-out: MIC (mg/L) 50%): ≤ 0.015 mg/L | MIC ([17]; read-out: MIC (mg/L) 90%): ≤ 0.015 mg/L | MIC90 ([18]; Proteus vulgaris): 0.125 µg/mL (≈ 0.346 µM) | MIC Range ([18]; Proteus vulgaris (n=25)): 0.032 to 1 µg/mL | MIC50 ([18]; Proteus vulgaris (n=25), read-out: MIC50): 0.063 µg/mL (≈ 0.174 µM) | MIC Range [19]: 0.016 to 0.25 µg/mL | MIC50 ([19]; Klebsiella aerogenes): 0.032 µg/mL (≈ 0.0886 µM) | MIC90 ([19]; Klebsiella aerogenes): 0.063 µg/mL (≈ 0.174 µM) | MIC50 ([20]; Citrobacter freundii): 0.125 µg/mL (≈ 0.346 µM) | MIC90 ([20]; Citrobacter freundii (n=39)): 1 µg/mL (≈ 2.77 µM) | MIC Range ([20]; Citrobacter freundii (n=39)): 0.016 to 1 µg/mL | MIC50 [21]: 0.063 µg/mL (≈ 0.174 µM) | MIC90 [21]: 4 µg/mL (≈ 11.1 µM) | MIC Range [21]: 0.016 to 16 µg/mL
